Assay results reported in publication PMC3645732, “A Differential Redox Regulation of the Pathways Metabolizing Glyceraldehyde-3-Phosphate Tunes the Production of Reducing Power in the Cytosol of Plant Cells” (International Journal of Molecular Sciences, 2013).

Key:
[1] = target: T1, np-Ga3PDHase (non-phosphorylating NADP+-dependent glyceraldehyde-3-phosphate dehydrogenase, EC 1.2.1.9) (Triticum aestivum, UniProt Q8LK61); test: Kd from protection against H2O2 inactivation of purified enzyme (Mildvan and Leigh plot); assay type: biochemical
T1 construct: gene GAPN; recombinant wheat enzyme (NCBI DQ268762), pRSETB/TagapN, E. coli
T1 sequence (Q8LK61 1-496): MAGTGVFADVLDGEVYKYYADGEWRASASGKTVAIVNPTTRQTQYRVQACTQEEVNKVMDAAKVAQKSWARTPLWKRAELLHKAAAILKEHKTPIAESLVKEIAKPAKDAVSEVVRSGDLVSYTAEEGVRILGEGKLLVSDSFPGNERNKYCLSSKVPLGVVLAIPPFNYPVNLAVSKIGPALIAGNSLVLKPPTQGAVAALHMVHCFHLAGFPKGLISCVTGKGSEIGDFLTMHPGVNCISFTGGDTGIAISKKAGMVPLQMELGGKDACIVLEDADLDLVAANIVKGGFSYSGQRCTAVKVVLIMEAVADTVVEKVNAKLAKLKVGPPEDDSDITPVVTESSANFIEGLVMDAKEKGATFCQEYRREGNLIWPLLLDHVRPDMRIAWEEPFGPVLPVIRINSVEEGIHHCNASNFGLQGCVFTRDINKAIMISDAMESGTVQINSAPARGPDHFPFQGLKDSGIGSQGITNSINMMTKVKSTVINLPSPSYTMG

[2] = target: T2, Ga3PDHase (phosphorylating NAD+-dependent glyceraldehyde-3-phosphate dehydrogenase, EC 1.2.1.12) (Triticum aestivum, UniProt A5YVV3); test: Kd from protection against H2O2 inactivation in presence of NAD+ (Mildvan and Leigh plot); S0.[…] by enzyme kinetics; assay type: biochemical
T2 construct: gene GAPC; recombinant wheat gapC (NCBI EF592180), homotetramer, E. coli
T2 sequence (A5YVV3 1-337): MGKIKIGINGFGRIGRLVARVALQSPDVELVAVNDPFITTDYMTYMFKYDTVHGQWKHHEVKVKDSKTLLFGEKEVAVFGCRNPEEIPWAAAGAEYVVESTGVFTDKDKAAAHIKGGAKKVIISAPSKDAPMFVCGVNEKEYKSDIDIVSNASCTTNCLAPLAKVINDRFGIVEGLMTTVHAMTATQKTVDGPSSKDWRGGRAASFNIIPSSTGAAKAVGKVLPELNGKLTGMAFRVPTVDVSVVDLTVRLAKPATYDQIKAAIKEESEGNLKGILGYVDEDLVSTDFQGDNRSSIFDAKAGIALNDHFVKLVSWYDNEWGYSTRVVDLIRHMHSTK

| Structure (SMILES) | Kd [1] [µM] | Kd [2] [µM] |
| --- | --- | --- |
| NC(=O)c1ccc[n+]([C@@H]2O[C@H](COP(=O)([O-])OP(=O)(O)OC[C@H]3O[C@@H](n4cnc5c(N)ncnc54)[C@H](OP(=O)(O)O)[C@@H]3O)[C@@H](O)[C@H]2O)c1 [NADP^+] | 2.5 |  |
| O=C[C@H](O)COP(=O)(O)O [glyceraldehyde-3-phosphate] |  | 115 |
